Measured values reported in patent US20260001928A1 (CORTERIA PHARMACEUTICALS, priority 2022, published 2026).
*1 amine or outer side, *2 acyl side, *3 side chain or, on linkers, in order; H or OH if unused. Where a SMILES comes first, the peptide text is derived from it. Side-chain parts run from the residue outwards. [ ]: non-standard residue; d: D form. The star is where a group is joined. C18 diacid = O=C(O)CCCCCCCCCCCCCCCCC(=O)*; C16 diacid = O=C(O)CCCCCCCCCCCCCCC(=O)*; γGlu = O=C(O)[C@H](CCC(=O)[*:2])N[*:1]; Api = NC1(C(=O)O)CCNCC1; Abu = CC[C@H](N)C(=O)O; Aib = CC(C)(N)C(=O)O

Experiments:
Rat PLM = conditions: male Sprague Dawley rats, 37° C., up to 2 hours
Human PLM = conditions: 37° C., up to 2 hours
Minipig PLM = conditions: 37° C., up to 2 hours
human CRF2a receptor = molecular target: T1, human CRF2a receptor (Homo sapiens, UniProt Q13324); assay: Activity at human CRF2a receptor, cAMP functional assay in TeloHEAC cells; type: cell-based; conditions: TeloHEAC cells stably expressing human CRF2a receptor, relative to urocortin 2 (100 nM = 100%)
T1 construct: expressed in transfected cells; host or cells: TeloHEAC cells
T1 sequence (Q13324 1-411): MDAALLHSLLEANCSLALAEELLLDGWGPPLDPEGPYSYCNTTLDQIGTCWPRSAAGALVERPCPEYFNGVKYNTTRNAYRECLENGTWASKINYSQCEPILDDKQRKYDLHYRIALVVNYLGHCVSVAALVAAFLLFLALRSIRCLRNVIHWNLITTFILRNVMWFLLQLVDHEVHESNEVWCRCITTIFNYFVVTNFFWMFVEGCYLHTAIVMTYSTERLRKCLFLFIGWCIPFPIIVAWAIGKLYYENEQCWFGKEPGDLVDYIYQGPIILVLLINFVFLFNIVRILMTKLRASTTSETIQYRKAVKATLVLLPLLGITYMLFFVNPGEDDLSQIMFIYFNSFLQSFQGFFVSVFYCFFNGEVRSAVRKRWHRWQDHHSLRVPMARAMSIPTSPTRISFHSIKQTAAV
Outline: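 cAMP accumulation was measured by HTRF 665/620 nm ratio after 30 min at 37° C compound exposure (16 twofold dilutions) of CRF2a-expressing TeloHEAC cells, 10000/well, in HEPES-buffered HBSS plus IBMX. Activity was normalised to urocortin 2 at 100 nM (100%), and EC50 was the concentration giving half-maximal activation.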

CFR1R receptor = molecular target: T2, CFR1R receptor (Homo sapiens, UniProt P34998); assay: Activity at anti-target CFR1R receptor, cAMP assay in CRF1R-overexpression CHO-K1 cells; type: cell-based; conditions: 100% = Sauvagine at 100 nM; for EC50: cAMP
T2 construct: host or cells: CHO-K1 (clone 2)
T2 sequence (P34998 24-415): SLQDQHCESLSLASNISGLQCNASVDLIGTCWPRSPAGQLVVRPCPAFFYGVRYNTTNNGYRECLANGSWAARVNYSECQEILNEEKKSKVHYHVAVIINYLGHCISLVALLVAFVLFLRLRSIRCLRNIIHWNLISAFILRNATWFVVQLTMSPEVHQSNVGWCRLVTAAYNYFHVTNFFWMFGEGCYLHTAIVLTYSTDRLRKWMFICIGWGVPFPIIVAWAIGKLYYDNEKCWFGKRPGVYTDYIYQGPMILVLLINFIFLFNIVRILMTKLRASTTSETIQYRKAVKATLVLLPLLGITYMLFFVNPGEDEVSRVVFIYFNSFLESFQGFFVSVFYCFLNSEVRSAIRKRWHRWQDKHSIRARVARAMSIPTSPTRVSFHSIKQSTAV
Outline: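 Uses frozen stocks of CHO-K1 clone 2 cells overexpressing human CRF1R, plated at 4000 cells/well final, with cAMP measured by the same protocol as the TeloHAEC line. Full-activation control: 100 nM Sauvagine.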

[1] = In vitro plasma stability, human plasma; type: in vitro ADME; design: dose or concentration left out as unconfirmed; conditions: Human PLM, 37° C.
Description: (§1) In vitro plasma metabolic stability was studied in male Sprague Dawley rats and human. Test compounds were incubated at 3 M for 2 hours at 37° C. At each time point (0, 0.25, 1 and 2 h), samples were prepared for analysis by means of a single step protein precipitation technique by adding 150 μL of ethanol, 0.1% formic acid to 50 μL aliquots of plasma. Samples were mixed by vortex for homogeneity and then subjected to centrifugation at 14000 rpm for 15 min. The supernatant (100 μL) was collected, diluted with 100 μL of water, 0.1% formic acid and analyzed by LC-HRMS (TripleTOF 6600+, AB Sciex). For each test compound, the area ratios at each time point were compared to the 0 h area ratio and converted to a percentage remaining.

[2] = In vitro plasma stability, rat plasma; type: in vitro ADME; design: remaining at 2 h: dose or concentration left out as unconfirmed; conditions: male, Sprague Dawley, plasma; Rat PLM, 37° C.
Description: as §1

[3] = In vitro plasma stability, minipig plasma; type: in vitro ADME; design: remaining at 2 h: dose or concentration left out as unconfirmed; conditions: pig, plasma; Minipig PLM, 37° C.
[4] = Chemical stability in buffer (pH 7.4 / pH 4.5), % purity loss; type: physicochemical; conditions: 40° C. vs 5° C., 14 or 28 days; for Buffer stability pH 4.5 % purity loss: 100 mM acetate buffer pH 4.5; for Buffer stability pH 7.4 % purity loss: 100 mM phosphate buffer pH 7.4
Outline: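 LC-UV gave % loss after 14 or 28 days of storage at 5 °C or 40 °C. Samples were diluted supernatants from compound incubated 1 h at room temperature at 10 mg/mL target, in 100 mM acetate pH 4.5 or 100 mM phosphate pH 7.4.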

Sprague Dawley rats = assay: Effect on systolic blood pressure, telemetry in Sprague Dawley rats; type: in vivo, rat; conditions: 0.1 mg/kg SC; for Systolic blood pressure (Mean) % change from baseline, 8 h / Systolic blood pressure (Mean) % change from baseline, 12 h / Systolic blood pressure (Mean) % change from baseline, 24 h: n=2; for Duration of action: last time point with an effect on BP still observed
Outline: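 Values are % change from a 1 h pre-dose baseline in systolic pressure, tracked by telemetry for up to 48 hours after a single 0.1 mg/kg subcutaneous dose. Rats (Sprague Dawley, n=2 per peptide) carried aortic catheters and recovered at least 10 days post-surgery; duration of action marks the last time point still showing an effect.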

[5] = In vitro subcutaneous tissue supernatant (SCts) stability and metabolite identification, rat; type: in vitro ADME; design: remaining at 2 h: dose or concentration left out as unconfirmed; conditions: male, Sprague Dawley; rat subcutaneous tissue supernatant (SCts), 37° C, 2 h

| Compound | not cleaved (Rat PLM) [% remaining at 2 hours] | not cleaved (Human PLM) [% remaining at 2 hours] | not cleaved (Minipig PLM) [% remaining at 2 hours] | EC50 (human CRF2a receptor) [nM] | Emax (% I) (CFR1R receptor) | EC50 (CFR1R receptor) [nM] | remaining at 2 h [1] [%] | remaining at 2 h [2] [%] | remaining at 2 h [3] [%] | Buffer stability pH 4.5 % purity loss [4] | Buffer stability pH 7.4 % purity loss [4] | Systolic blood pressure (Mean) % change from baseline, 8 h (Sprague Dawley rats) [%] | Systolic blood pressure (Mean) % change from baseline, 12 h (Sprague Dawley rats) [%] | Systolic blood pressure (Mean) % change from baseline, 24 h (Sprague Dawley rats) [%] | Duration of action (Sprague Dawley rats) [h] | remaining at 2 h [5] [%] |
| --- | --- | --- | --- | --- | --- | --- | --- | --- | --- | --- | --- | --- | --- | --- | --- | --- |
| Ac-IVLSLDvPIKαMELK*KILLEQEKQKKQREQAETNAibQILAQV-NH2 | 95 | 97 | 106 | – | – | – | – | – | – | – | – | – | – | – | – | – |
| Ac-IVLSLDvPIKLK*KILLEQEKQKKQREQAETNAbuQILAQV-NH2 | – | 102 | 97 | – | – | – | – | – | – | – | – | – | – | – | – | – |
| CC[C@H](NC(=O)[C@H](CC(N)=O)NC(=O)[C@@H](NC(=O)[C@H](CCC(=O)O)NC(=O)[C@H](C)NC(=O)[C@H](CCC(N)=O)NC(=O)[C@H](CCC(=O)O)NC(=O)[C@H](CCCNC(=N)N)NC(=O)[C@H](CCC(N)=O)NC(=O)[C@H](CCCCN)NC(=O)[C@H](CCCCN)NC(=O)[C@H](CCC(N)=O)NC(=O)[C@H](CCCCN)NC(=O)[C@H](CCC(=O)O)NC(=O)[C@H](CCC(N)=O)NC(=O)[C@H](CCC(=O)O)NC(=O)[C@H](CC(C)C)NC(=O)[C@H](CC(C)C)NC(=O)[C@@H](NC(=O)[C@H](CCCCN)NC(=O)[C@H](CCCCNC(=O)CC[C@H](NC(=O)CCCCCCCCCCCCCCC(=O)O)C(=O)O)NC(=O)[C@H](CC(C)C)NC(=O)[C@H](CCCCN)NC(=O)[C@@H](NC(=O)[C@@H]1CCCN1C(=O)[C@H](NC(=O)[C@H](CC(=O)O)NC(=O)[C@H](CC(C)C)NC(=O)[C@H](CO)NC(=O)[C@H](CC(C)C)NC(=O)[C@@H](NC(=O)[C@@H](NC(C)=O)[C@@H](C)CC)C(C)C)C(C)C)[C@@H](C)CC)[C@@H](C)CC)[C@@H](C)O)C(=O)N[C@@H](CCC(N)=O)C(=O)N[C@H](C(=O)N[C@@H](CC(C)C)C(=O)N[C@@H](C)C(=O)N[C@@H](CCC(N)=O)C(=O)N[C@H](C(N)=O)C(C)C)[C@@H](C)CC [compound 51] (Ac-IVLSLD[dV]PIKLK([γGlu-C16 diacid])KILLEQEKQKKQREQAETN[Abu]QILAQV-NH2) | – | – | – | 0.12 | 9 | > 250 | 102 | 73 | 97 | 0/0 ^ % | 0/0 ^ % | −27 | −19 | −1 | 24 | – |
| Pentanoyl-VLSLDvPIKLK*KILLEQEKQKKQREQAETNAibQILAQV-NH2 | 98 | 101 | 104 | – | – | – | – | – | – | – | – | – | – | – | – | – |
| CC[C@H](C)[C@H](NC(C)=O)C(=O)N[C@H](C(=O)N[C@@H](CC(C)C)C(=O)N[C@@H](CO)C(=O)N[C@@H](CC(C)C)C(=O)N[C@@H](CC(=O)O)C(=O)N[C@@H](C(=O)N1CCC[C@H]1C(=O)N[C@H](C(=O)N[C@@H](CCCCN)C(=O)N[C@@H](CC(C)C)C(=O)N[C@@H](CCCCNC(=O)CC[C@H](NC(=O)CCCCCCCCCCCCCCCCC(=O)O)C(=O)O)C(=O)N[C@@H](CCCCN)C(=O)N[C@H](C(=O)N[C@@H](CC(C)C)C(=O)N[C@@H](CC(C)C)C(=O)N[C@@H](CCC(=O)O)C(=O)N[C@@H](CCC(N)=O)C(=O)N[C@@H](CCC(=O)O)C(=O)N[C@@H](CCCCN)C(=O)N[C@@H](CCC(N)=O)C(=O)N[C@@H](CCCCN)C(=O)N[C@@H](CCCCN)C(=O)N[C@@H](CCC(N)=O)C(=O)N[C@@H](CCCNC(=N)N)C(=O)N[C@@H](CCC(=O)O)C(=O)N[C@@H](CCC(N)=O)C(=O)N[C@@H](C)C(=O)N[C@@H](CCC(=O)O)C(=O)N[C@H](C(=O)N[C@@H](CC(N)=O)C(=O)NC(C)(C)C(=O)N[C@@H](CCC(N)=O)C(=O)N[C@H](C(=O)N[C@@H](CC(C)C)C(=O)N[C@@H](C)C(=O)N[C@@H](CCC(N)=O)C(=O)N[C@H](C(N)=O)C(C)C)[C@@H](C)CC)[C@@H](C)O)[C@@H](C)CC)[C@@H](C)CC)C(C)C)C(C)C [compound 125] (Ac-IVLSLD[dV]PIKLK([γGlu-C18 diacid])KILLEQEKQKKQREQAETN[Aib]QILAQV-NH2) | – | – | – | 0.15 | 18 | > 250 | 93 | 108 | 110 | – | 0/nd ^ % | −25 | −16 | 1 | 22 | 79 |
| CC[C@H](C)[C@H](NC(C)=O)C(=O)N[C@H](C(=O)N[C@@H](CC(C)C)C(=O)N[C@@H](CO)C(=O)N[C@@H](CC(C)C)C(=O)N[C@@H](CC(=O)O)C(=O)N[C@@H](C(=O)N1CCC[C@H]1C(=O)N[C@H](C(=O)N[C@@H](CCCCN)C(=O)N[C@@H](CC(C)C)C(=O)N[C@@H](CCCCNC(=O)CC[C@H](NC(=O)CCCCCCCCCCCCCCC(=O)O)C(=O)O)C(=O)N[C@@H](CCCCN)C(=O)N[C@H](C(=O)N[C@@H](CC(C)C)C(=O)N[C@@H](CC(C)C)C(=O)N[C@@H](CCC(=O)O)C(=O)N[C@@H](CCC(N)=O)C(=O)N[C@@H](CCC(=O)O)C(=O)N[C@@H](CCCCN)C(=O)N[C@@H](CCC(N)=O)C(=O)N[C@@H](CCCCN)C(=O)N[C@@H](CCCCN)C(=O)N[C@@H](CCC(N)=O)C(=O)N[C@@H](CCCNC(=N)N)C(=O)N[C@@H](CCC(=O)O)C(=O)N[C@@H](CCC(N)=O)C(=O)N[C@@H](C)C(=O)N[C@@H](CCC(=O)O)C(=O)N[C@H](C(=O)N[C@@H](CC(N)=O)C(=O)NC1(C(=O)N[C@@H](CCC(N)=O)C(=O)N[C@H](C(=O)N[C@@H](CC(C)C)C(=O)N[C@@H](C)C(=O)N[C@@H](CCC(N)=O)C(=O)N[C@H](C(N)=O)C(C)C)[C@@H](C)CC)CCNCC1)[C@@H](C)O)[C@@H](C)CC)[C@@H](C)CC)C(C)C)C(C)C [compound 57] (Ac-IVLSLD[dV]PIKLK([γGlu-C16 diacid])KILLEQEKQKKQREQAETN[Api]QILAQV-NH2) | – | – | – | 0.39 | 24 | > 250 | 104 | 96 | 81 | 0/0 ^ % | 0/0 ^ % | −34 | −25 | −2 | >24 | – |
